Measured values taken from paper PMC13489962, “Small-molecule modulation of β-arrestins” (Nature, 2026).

Test system: βarr1/2
Test: DSF with IP6 and/or Cmpd-5
Type: binding
Experimental: DSF assay was performed to identify β-arrestin-binding small molecules from the drug-like compound library (DDLC) described above. The screen was conducted using the StepOnePlus Real-Time PCR System (Applied Biosystems) with the fluorescent reporter probe SYPRO Orange (Thermo Fisher Scientific) in a 96-well format. Proteins were buffered in 20 mM HEPES (pH 7.5) with 100 mM NaCl. Small molecules (100 μM) were screened with either βARR1 or βARR2 (5 μM). DMSO was used as a vehicle control, and V2Rpp (50 μM) served as a positive control.
For DSF experiments involving the three positive control ligands (V2Rpp, IP6 and heparin, each at 50 μM) binding to β-arrestins, HEPES buffer was used as the vehicle control. Excitation and emission filters for SYPRO Orange were set to 475 nm and 580 nm, respectively. The temperature was increased by 0.5 °C every 30 s, from 25 °C to 99 °C, with fluorescence readings taken at each interval. Raw DSF data were analysed using Applied Biosystems Protein Thermal Shift Software. Fluorescence intensities were plotted as a function of temperature, and the midpoint of transition, or melting temperature (Tm), was calculated by plotting the first derivative of fluorescence emission as a function of temperature (dF/dT). […]

## C=C1C(=O)[C@]23[C@H](O)[C@H]1CC[C@H]2[C@@]12CO[C@]3(O)[C@@H](O)[C@@H]1C(C)(C)CC[C@@H]2O [Cmpd-5, (1S,4aR,5S,6S,6aR,9S,11aS,11bS,14R)-1,5,6,14-tetrahydroxy−4,4-dimethyl-8-methylenedecahydro-1H-6,11b-(epoxymethano)-6a,9-methanocyclohepta[a]naphthalen-7(8H)-one]
  effect on IP6-stabilized β-arrestin state by DSF: shifts βarr1/2 away from the IP6-stabilized active state
